# Data published in ChEMBL document CHEMBL1909046, “DrugMatrix in vitro pharmacology data”.
# What was measured:
# [1] = target: T1, Type-2 angiotensin II receptor (Homo sapiens, UniProt P50052); type: cell-based; conditions: cho-k1; further: in other assays of this panel Not Active means under 50% inhibition at 10 µM
# T1 sequence (P50052 whole entry): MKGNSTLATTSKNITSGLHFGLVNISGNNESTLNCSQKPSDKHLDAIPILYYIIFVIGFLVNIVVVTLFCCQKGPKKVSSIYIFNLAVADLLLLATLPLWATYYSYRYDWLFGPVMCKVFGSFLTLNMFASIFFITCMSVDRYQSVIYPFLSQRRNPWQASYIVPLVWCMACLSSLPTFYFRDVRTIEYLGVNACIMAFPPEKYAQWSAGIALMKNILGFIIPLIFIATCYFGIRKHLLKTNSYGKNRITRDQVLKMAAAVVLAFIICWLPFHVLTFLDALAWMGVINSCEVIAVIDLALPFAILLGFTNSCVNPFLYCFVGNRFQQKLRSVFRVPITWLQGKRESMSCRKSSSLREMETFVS
# [2] = target: T2, 5-hydroxytryptamine receptor 2C (Homo sapiens, UniProt P28335); test: DRUGMATRIX: Serotonin (5-Hydroxytryptamine) 5-HT2C radioligand binding (ligand: [3H] Mesulergine); type: cell membranes, CHO-K1, Membrane; conditions: Not Active = under 50% inhibition at 10 µM
# T2 sequence (P28335 whole entry): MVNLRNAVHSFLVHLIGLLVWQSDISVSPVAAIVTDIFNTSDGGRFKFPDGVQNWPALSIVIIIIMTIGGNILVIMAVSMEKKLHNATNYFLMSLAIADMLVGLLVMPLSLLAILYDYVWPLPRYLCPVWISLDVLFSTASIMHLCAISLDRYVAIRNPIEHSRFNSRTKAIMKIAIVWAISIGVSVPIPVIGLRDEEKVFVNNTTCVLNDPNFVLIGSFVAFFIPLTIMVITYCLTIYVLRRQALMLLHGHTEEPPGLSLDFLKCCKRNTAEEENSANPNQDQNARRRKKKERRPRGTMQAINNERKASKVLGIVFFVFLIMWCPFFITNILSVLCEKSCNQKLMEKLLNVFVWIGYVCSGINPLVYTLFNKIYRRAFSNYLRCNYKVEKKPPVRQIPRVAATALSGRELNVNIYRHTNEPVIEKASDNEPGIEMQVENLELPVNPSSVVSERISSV
# [3] = target: T3, C-X-C chemokine receptor type 2 (Homo sapiens, UniProt P25025); type: cell membranes, Membrane; conditions: cho-k1; further: in other assays of this panel Not Active means under 50% inhibition at 10 µM
# T3 sequence (P25025 whole entry): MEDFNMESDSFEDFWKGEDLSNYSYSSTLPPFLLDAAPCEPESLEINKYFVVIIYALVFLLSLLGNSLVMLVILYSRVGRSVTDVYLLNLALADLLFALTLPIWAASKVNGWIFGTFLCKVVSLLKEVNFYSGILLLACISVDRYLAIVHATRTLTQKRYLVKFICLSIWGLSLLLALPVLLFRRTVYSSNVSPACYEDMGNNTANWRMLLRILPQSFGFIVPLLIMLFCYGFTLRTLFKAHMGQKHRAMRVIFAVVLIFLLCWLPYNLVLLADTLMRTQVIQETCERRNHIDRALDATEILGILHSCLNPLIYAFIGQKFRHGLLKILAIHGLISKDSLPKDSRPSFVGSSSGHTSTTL
# [4] = target: T4, Neuropeptide Y receptor type 1 (Homo sapiens, UniProt P25929); type: cell membranes, Membrane; conditions: sk-n-mc; further: in other assays of this panel Not Active means under 50% inhibition at 10 µM
# T4 sequence (P25929 whole entry): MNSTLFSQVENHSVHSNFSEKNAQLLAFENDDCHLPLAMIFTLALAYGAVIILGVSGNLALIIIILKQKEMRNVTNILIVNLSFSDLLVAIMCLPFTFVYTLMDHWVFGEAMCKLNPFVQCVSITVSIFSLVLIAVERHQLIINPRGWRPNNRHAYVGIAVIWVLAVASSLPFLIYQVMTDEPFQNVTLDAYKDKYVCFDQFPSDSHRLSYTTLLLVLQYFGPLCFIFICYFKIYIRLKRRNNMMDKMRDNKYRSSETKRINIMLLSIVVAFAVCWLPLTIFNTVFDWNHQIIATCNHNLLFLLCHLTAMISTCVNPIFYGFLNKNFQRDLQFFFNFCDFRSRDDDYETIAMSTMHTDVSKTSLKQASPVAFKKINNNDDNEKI
# [5] = target: T5, Nitric oxide synthase, inducible (Mus musculus, UniProt P29477); parameters: species or system Escherichia coli;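 further: inhibition of iNOS enzyme activity measured with L-arginine as substrate; in other assays of this panel Not Active means under 50% inhibition at 10 µM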
# T5 sequence (P29477 whole entry): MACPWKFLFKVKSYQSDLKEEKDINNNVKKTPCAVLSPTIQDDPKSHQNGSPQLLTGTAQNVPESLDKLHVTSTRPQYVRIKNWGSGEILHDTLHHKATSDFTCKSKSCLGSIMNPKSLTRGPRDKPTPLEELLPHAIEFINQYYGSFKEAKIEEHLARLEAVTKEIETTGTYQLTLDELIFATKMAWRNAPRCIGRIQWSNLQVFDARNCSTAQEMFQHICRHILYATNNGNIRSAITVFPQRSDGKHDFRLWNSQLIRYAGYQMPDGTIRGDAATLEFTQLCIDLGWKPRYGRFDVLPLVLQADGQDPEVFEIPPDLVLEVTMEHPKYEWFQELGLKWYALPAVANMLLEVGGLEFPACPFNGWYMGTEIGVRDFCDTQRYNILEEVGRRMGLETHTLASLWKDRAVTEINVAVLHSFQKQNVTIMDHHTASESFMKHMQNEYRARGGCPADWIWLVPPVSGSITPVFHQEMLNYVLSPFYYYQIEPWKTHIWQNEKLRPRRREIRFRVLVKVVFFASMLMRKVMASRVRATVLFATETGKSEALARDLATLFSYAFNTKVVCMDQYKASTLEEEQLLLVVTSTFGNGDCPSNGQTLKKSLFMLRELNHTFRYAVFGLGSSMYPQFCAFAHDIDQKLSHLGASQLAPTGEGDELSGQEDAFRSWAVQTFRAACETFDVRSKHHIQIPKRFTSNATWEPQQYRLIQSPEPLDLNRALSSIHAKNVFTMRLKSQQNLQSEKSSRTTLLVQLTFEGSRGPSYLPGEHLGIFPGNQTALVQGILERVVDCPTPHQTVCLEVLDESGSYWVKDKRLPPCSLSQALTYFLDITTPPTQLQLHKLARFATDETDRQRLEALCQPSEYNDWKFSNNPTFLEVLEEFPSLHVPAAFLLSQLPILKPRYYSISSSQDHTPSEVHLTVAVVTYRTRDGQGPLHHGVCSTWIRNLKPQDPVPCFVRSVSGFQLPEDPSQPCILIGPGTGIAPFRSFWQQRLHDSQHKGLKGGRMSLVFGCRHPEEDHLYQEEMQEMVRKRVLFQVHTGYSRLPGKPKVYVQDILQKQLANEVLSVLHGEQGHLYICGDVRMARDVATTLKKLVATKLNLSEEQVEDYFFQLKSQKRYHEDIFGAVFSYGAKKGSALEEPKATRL
# [6] = DRUGMATRIX: Phorbol Ester radioligand binding (ligand: [3H] PDBu); type: cell membranes, Mus musculus, ICR, Brain, Membrane; conditions: Not Active = under 50% inhibition at 10 µM
SMILES,IC50 [1],IC50 ([2]; cho-k1),IC50 [3],IC50 [4],IC50 [5],IC50 [6],Ki [6],IC50 ([2]; read-out: IC50) [nM],Ki ([2]; read-out: Ki) [nM]
CC1=C(CC(=O)O)c2cc(F)ccc2/C1=C\c1ccc([S+](C)[O-])cc1 (configuration not stated),Not Active,Not Active,Not Active,Not Active,Not Active,Not Active,Not Active,–,–
N[C@H](CSC(=S)NCc1ccccc1)C(=O)O,Not Active,Not Active,Not Active,Not Active,Not Active,Not Active,Not Active,–,–
CC(=O)N[C@@H]1[C@H](Oc2c3cc4cc2Oc2ccc(cc2Cl)[C@@H](O[C@@H]2O[C@@H](CO)[C@@H](O)[C@H](O)[C@@H]2NC(C)=O)[C@@H]2NC(=O)[C@H](NC(=O)[C@@H]4NC(=O)[C@H]4NC(=O)[C@@H](Cc5ccc(c(Cl)c5)O3)NC(=O)[C@H](N)c3ccc(O)c(c3)Oc3cc(O)cc4c3)c3ccc(O)c(c3)-c3c(O[C@H]4O[C@H](CO)[C@@H](O)[C@@H](O)[C@@H]4O)cc(O)cc3[C@@H](C(=O)O)NC2=O)O[C@@H](CO)[C@@H](O)[C@@H]1O,Not Active,Not Active,Not Active,Not Active,Not Active,Not Active,Not Active,–,–
Clc1ccc2c(c1)C(N1CCNCC1)=Nc1ccccc1O2 [AMOXAPINE],Not Active,–,Not Active,Not Active,Not Active,–,–,–,–
COc1cc2c(c(OC)c1OC)-c1ccc(OC)c(=O)cc1[C@@H](NC(C)=O)CC2 [COLCHICINE],Not Active,Not Active,Not Active,Not Active,Not Active,–,–,–,–
CN1CCC(=C2c3ccccc3C=Cc3ccccc32)CC1 [CYPROHEPTADINE],Not Active,–,Not Active,Not Active,Not Active,–,–,2.44,1.28
CC/C(=C(/CC)c1ccc(O)cc1)c1ccc(O)cc1 [DIETHYLSTILBESTROL],Not Active,–,Not Active,Not Active,Not Active,–,–,–,–
CC(=O)N1CCN(c2ccc(OCC3COC(Cn4ccnc4)(c4ccc(Cl)cc4Cl)O3)cc2)CC1 (configuration not stated) [KETOCONAZOLE],Not Active,Not Active,Not Active,Not Active,Not Active,Not Active,Not Active,–,–
C=CCN1CC[C@]23c4c5ccc(O)c4O[C@H]2C(=O)CC[C@@]3(O)[C@H]1C5 [NALOXONE],Not Active,Not Active,Not Active,Not Active,Not Active,–,–,–,–
COCCOC(=O)C1=C(C)NC(C)=C(C(=O)OC(C)C)C1c1cccc([N+](=O)[O-])c1 (configuration not stated) [NIMODIPINE],Not Active,Not Active,Not Active,Not Active,Not Active,Not Active,Not Active,–,–
CC(C)NCC(O)COc1cccc2ccccc12 (configuration not stated) [PROPRANOLOL],Not Active,–,Not Active,Not Active,Not Active,–,–,–,–
COCCCOc1ccnc(C[S+]([O-])c2nc3ccccc3[nH]2)c1C (configuration not stated) [RABEPRAZOLE],Not Active,Not Active,Not Active,Not Active,Not Active,Not Active,Not Active,–,–
O=C(c1ccc(OCCN2CCCCC2)cc1)c1c(-c2ccc(O)cc2)sc2cc(O)ccc12 [RALOXIFENE],Not Active,–,Not Active,Not Active,Not Active,Not Active,Not Active,–,–
CNC(=C[N+](=O)[O-])NCCSCc1ccc(CN(C)C)o1 [RANITIDINE],Not Active,Not Active,Not Active,Not Active,Not Active,Not Active,Not Active,–,–
CO[C@H]1/C=C/O[C@@]2(C)Oc3c(C)c(O)c4c(c3C2=O)C2=NC3(CCN(CC(C)C)CC3)NC2=C(NC(=O)/C(C)=C\C=C\[C@H](C)[C@H](O)[C@@H](C)[C@@H](O)[C@@H](C)[C@H](OC(C)=O)[C@@H]1C)C4=O [RIFABUTIN],Not Active,Not Active,Not Active,Not Active,Not Active,Not Active,Not Active,–,–
CC(C)c1nc(CN(C)C(=O)N[C@H](C(=O)N[C@@H](Cc2ccccc2)C[C@H](O)[C@H](Cc2ccccc2)NC(=O)OCc2cncs2)C(C)C)cs1 [RITONAVIR],Not Active,Not Active,Not Active,Not Active,Not Active,Not Active,Not Active,–,–
CC(C)CC(N(C)C)C1(c2ccc(Cl)cc2)CCC1 (configuration not stated) [SIBUTRAMINE],Not Active,Not Active,Not Active,Not Active,Not Active,Not Active,Not Active,–,–
[H]/N=C(/N)N[C@H]1[C@H](O)[C@@H](O)[C@H](O[C@@H]2O[C@@H](C)[C@](O)(C=O)[C@H]2O[C@@H]2O[C@@H](CO)[C@H](O)[C@@H](O)[C@@H]2NC)[C@@H](N/C(N)=N\[H])[C@@H]1O [STREPTOMYCIN],Not Active,Not Active,Not Active,Not Active,Not Active,Not Active,Not Active,–,–
CC(C)(C)c1ccc(C(O)CCCN2CCC(C(O)(c3ccccc3)c3ccccc3)CC2)cc1 (configuration not stated) [TERFENADINE],Not Active,–,Not Active,Not Active,Not Active,Not Active,Not Active,–,–
